The numbers were not newly measured in patent US20230055121A1, “AQUEOUS SUSPENSION COMPOSITION CONTAINING SIROLIMUS OR SALT THEREOF” (SANTEN PHARMACEUTICAL CO., LTD., priority 2019, published 2023), which cites them from elsewhere.

In the case of Sirolimus, the Solubility in water result was “almost insoluble in water”.
